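These data come from cells grown in 96-well plates and exposed to compound for 48 hours at five concentrations. The concentration for 50% growth inhibition is given as GI50.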 Calls of active or inactive are those of the source. No stated cut-off is given here; in the data, active = GI50 up to about 1.1 µM and inactive = higher. Residues, ends and D or L forms follow the SMILES beside them. Groups on a side chain read outwards from the residue. *: point of attachment. Cbz = O=C(OCc1ccccc1)*; Boc = CC(C)(C)OC(=O)*
How the values were obtained:
Experiment in all cases: growth of human tumour cells (NCI), 48 h
786-0 = tested on: 786-0
A498 = tested on: A498
A549 = tested on: A549
ACHN = tested on: ACHN
CAKI-1 = tested on: CAKI-1
COLO 205 = tested on: COLO 205
DU-145 = tested on: DU-145
HCT-116 = tested on: HCT-116
HOP-62 = tested on: HOP-62
K562 = tested on: K562
M14 = tested on: M14
MDA-MB-435 = tested on: MDA-MB-435
NCI/ADR-RES = tested on: NCI/ADR-RES
OVCAR-5 = tested on: OVCAR-5
SF-268 = tested on: SF-268
SK-MEL-2 = tested on: SK-MEL-2
SNB-75 = tested on: SNB-75
SW-620 = tested on: SW-620
MCF7 = tested on: MCF7
OVCAR-4 = tested on: OVCAR-4

SMILES	GI50 (786-0)	GI50 (A498)	GI50 (A549)	GI50 (ACHN)	GI50 (CAKI-1)	GI50 (COLO 205)	GI50 (DU-145)	GI50 (HCT-116)	GI50 (HOP-62)	GI50 (K562)	GI50 (M14)	GI50 (MDA-MB-435)	GI50 (NCI/ADR-RES)	GI50 (OVCAR-5)	GI50 (SF-268)	GI50 (SK-MEL-2)	GI50 (SNB-75)	GI50 (SW-620)	GI50 (MCF7)	GI50 (OVCAR-4)
CC1=NNC(=O)C1C1C=C(c2c[nH]c3ccccc23)OC1=O (stereo unspecified)	> 100 µM (inactive)	> 100 µM (inactive)	> 100 µM (inactive)	> 100 µM (inactive)	> 100 µM (inactive)	> 100 µM (inactive)	> 100 µM (inactive)	> 100 µM (inactive)	> 100 µM (inactive)	62.4 µM (inactive)	> 100 µM (inactive)	> 100 µM (inactive)	> 100 µM (inactive)	> 100 µM (inactive)	> 100 µM (inactive)	> 100 µM (inactive)	> 100 µM (inactive)	> 100 µM (inactive)	–	–
O=C(CSC1=NC(=O)C2(NN1)c1ccccc1-c1ccccc12)NC(=S)Nc1ccccc1	> 10 µM (inactive)	–	> 10 µM (inactive)	1.81 µM (inactive)	> 10 µM (inactive)	> 10 µM (inactive)	> 10 µM (inactive)	> 10 µM (inactive)	> 10 µM (inactive)	> 10 µM (inactive)	> 10 µM (inactive)	> 10 µM (inactive)	7.76 µM (inactive)	> 10 µM (inactive)	> 10 µM (inactive)	–	> 10 µM (inactive)	> 10 µM (inactive)	4.27 µM (inactive)	> 10 µM (inactive)
COc1nc(O)nc2c1C(c1ccc([N+](=O)[O-])cc1)c1c(OC)nc(O)nc1O2	> 100 µM (inactive)	> 100 µM (inactive)	> 100 µM (inactive)	> 100 µM (inactive)	> 100 µM (inactive)	> 100 µM (inactive)	> 100 µM (inactive)	> 100 µM (inactive)	> 100 µM (inactive)	–	> 100 µM (inactive)	> 100 µM (inactive)	> 100 µM (inactive)	> 100 µM (inactive)	> 100 µM (inactive)	> 100 µM (inactive)	–	> 100 µM (inactive)	–	> 100 µM (inactive)
NC(=O)C(NC=O)c1ccccc1 (stereo unspecified)	> 100 µM (inactive)	–	> 100 µM (inactive)	> 100 µM (inactive)	> 100 µM (inactive)	> 100 µM (inactive)	> 100 µM (inactive)	> 100 µM (inactive)	> 100 µM (inactive)	> 100 µM (inactive)	> 100 µM (inactive)	> 100 µM (inactive)	> 100 µM (inactive)	–	> 100 µM (inactive)	–	> 100 µM (inactive)	> 100 µM (inactive)	> 100 µM (inactive)	> 100 µM (inactive)
N/C1=C/C(=O)NC(=O)c2c(c3ccccc3oc2=O)C1	> 100 µM (inactive)	> 100 µM (inactive)	> 100 µM (inactive)	> 100 µM (inactive)	> 100 µM (inactive)	> 100 µM (inactive)	> 100 µM (inactive)	> 100 µM (inactive)	> 100 µM (inactive)	> 100 µM (inactive)	> 100 µM (inactive)	> 100 µM (inactive)	> 100 µM (inactive)	> 100 µM (inactive)	> 100 µM (inactive)	> 100 µM (inactive)	> 100 µM (inactive)	> 100 µM (inactive)	–	> 100 µM (inactive)
Cc1nc2c(=S)n(C)ncc2[nH]1	> 100 µM (inactive)	> 100 µM (inactive)	> 100 µM (inactive)	> 100 µM (inactive)	> 100 µM (inactive)	> 100 µM (inactive)	–	> 100 µM (inactive)	> 100 µM (inactive)	> 100 µM (inactive)	> 100 µM (inactive)	> 100 µM (inactive)	> 100 µM (inactive)	> 100 µM (inactive)	–	> 100 µM (inactive)	> 100 µM (inactive)	> 100 µM (inactive)	> 100 µM (inactive)	> 100 µM (inactive)
Nc1ncnc2c1ncn2C1C=CC(COS(N)(=O)=O)C1 (stereo unspecified)	18.5 µM (inactive)	–	36.2 µM (inactive)	23.9 µM (inactive)	3.28 µM (inactive)	16.9 µM (inactive)	66.8 µM (inactive)	9.38 µM (inactive)	16.8 µM (inactive)	16.2 µM (inactive)	22.2 µM (inactive)	35.2 µM (inactive)	66.2 µM (inactive)	64.1 µM (inactive)	33.7 µM (inactive)	39.3 µM (inactive)	21.9 µM (inactive)	12.9 µM (inactive)	6.43 µM (inactive)	34.3 µM (inactive)
CC(C)(C)OC(=O)NC(CCCCNC(=O)CNC(=O)OCc1ccccc1)C(=O)NC(CCCCNC(=O)CNC(=O)OCc1ccccc1)C(=O)NC(CCCCNC(=O)CNC(=O)OCc1ccccc1)C(=O)NC(CCCCNC(=O)CNC(=O)OCc1ccccc1)C(=O)O (stereo unspecified) (Boc-K([Gly-Cbz])K([Gly-Cbz])K([Gly-Cbz])K([Gly-Cbz])-OH; configuration not given here)	> 100 µM (inactive)	–	> 100 µM (inactive)	> 100 µM (inactive)	> 100 µM (inactive)	–	> 100 µM (inactive)	> 100 µM (inactive)	> 100 µM (inactive)	> 100 µM (inactive)	> 100 µM (inactive)	> 10 µM (inactive)	–	> 100 µM (inactive)	> 100 µM (inactive)	> 100 µM (inactive)	> 100 µM (inactive)	> 100 µM (inactive)	> 100 µM (inactive)	> 10 µM (inactive)
COc1cc(OC)cc(Oc2nc3ccccc3nc2C(=O)O)c1	> 100 µM (inactive)	> 100 µM (inactive)	> 100 µM (inactive)	> 100 µM (inactive)	> 100 µM (inactive)	> 100 µM (inactive)	> 100 µM (inactive)	> 100 µM (inactive)	> 100 µM (inactive)	> 100 µM (inactive)	> 100 µM (inactive)	> 100 µM (inactive)	> 100 µM (inactive)	> 100 µM (inactive)	> 100 µM (inactive)	> 100 µM (inactive)	> 100 µM (inactive)	> 100 µM (inactive)	–	0.6 µM (active)
c1ccc(Cc2cccc3cc(-c4ccc(-c5ccccc5)cc4)[nH]c23)cc1	> 100 µM (inactive)	–	76.7 µM (inactive)	> 100 µM (inactive)	75.7 µM (inactive)	> 100 µM (inactive)	54.6 µM (inactive)	> 100 µM (inactive)	31.5 µM (inactive)	–	52.8 µM (inactive)	> 100 µM (inactive)	> 100 µM (inactive)	> 100 µM (inactive)	32.7 µM (inactive)	> 100 µM (inactive)	22.5 µM (inactive)	92 µM (inactive)	97.1 µM (inactive)	19.7 µM (inactive)
O=CNNC(=O)Nc1cccc2ccccc12	> 100 µM (inactive)	–	> 100 µM (inactive)	> 100 µM (inactive)	–	> 100 µM (inactive)	> 100 µM (inactive)	> 100 µM (inactive)	> 100 µM (inactive)	> 100 µM (inactive)	> 100 µM (inactive)	> 100 µM (inactive)	> 100 µM (inactive)	> 100 µM (inactive)	> 100 µM (inactive)	–	> 100 µM (inactive)	> 100 µM (inactive)	> 100 µM (inactive)	> 100 µM (inactive)
OC(c1cc2ccc(C(F)(F)F)cc2c2cc(C(F)(F)F)ccc12)C1CCCCN1 (stereo unspecified)	1.58 µM (inactive)	–	1.8 µM (inactive)	1.33 µM (inactive)	1.8 µM (inactive)	1.59 µM (inactive)	1.8 µM (inactive)	1.46 µM (inactive)	1.85 µM (inactive)	1.55 µM (inactive)	1.88 µM (inactive)	1.48 µM (inactive)	1.82 µM (inactive)	1.77 µM (inactive)	1.64 µM (inactive)	1.91 µM (inactive)	1.29 µM (inactive)	1.49 µM (inactive)	1.81 µM (inactive)	1.77 µM (inactive)
O=C1c2ccccc2-c2nc(-c3cccs3)cc3c2c1nc1ccccc13	35.8 µM (inactive)	–	9.29 µM (inactive)	34.4 µM (inactive)	88.7 µM (inactive)	13.2 µM (inactive)	14.1 µM (inactive)	14.3 µM (inactive)	22 µM (inactive)	13.5 µM (inactive)	3.27 µM (inactive)	2.01 µM (inactive)	74.6 µM (inactive)	36.7 µM (inactive)	12.5 µM (inactive)	13.6 µM (inactive)	24.9 µM (inactive)	13.8 µM (inactive)	13 µM (inactive)	56 µM (inactive)
COc1ccc2c(O)c(S(=O)(=O)c3ccc(C)cc3)c(=O)oc2c1OC	> 100 µM (inactive)	–	> 100 µM (inactive)	> 100 µM (inactive)	> 100 µM (inactive)	> 100 µM (inactive)	> 100 µM (inactive)	> 100 µM (inactive)	–	> 100 µM (inactive)	> 100 µM (inactive)	> 100 µM (inactive)	> 100 µM (inactive)	> 100 µM (inactive)	> 100 µM (inactive)	> 100 µM (inactive)	> 100 µM (inactive)	> 100 µM (inactive)	> 100 µM (inactive)	> 100 µM (inactive)
NC(=O)N/N=C1\CCCCc2ccccc21	> 10 µM (inactive)	–	> 10 µM (inactive)	> 10 µM (inactive)	> 10 µM (inactive)	> 10 µM (inactive)	> 10 µM (inactive)	> 10 µM (inactive)	> 10 µM (inactive)	> 10 µM (inactive)	> 10 µM (inactive)	> 10 µM (inactive)	> 10 µM (inactive)	> 10 µM (inactive)	> 10 µM (inactive)	> 10 µM (inactive)	–	> 10 µM (inactive)	> 10 µM (inactive)	> 10 µM (inactive)

Reference: ChEMBL document CHEMBL1201862, “PubChem BioAssay data set” (2004)
